Assay results taken from patent US10435388B2, “Selective inhibitors of clinically important mutants of the EGFR tyrosine kinase” (CS PHARMATECH LIMITED, priority 2016, dated 2019).
Where “and” joins values, the source holds several entries; their conditions need not be identical. Equal entries are not always repeated.

Experiments:
Wt EGFR = target: T1, Wt EGFR (Homo sapiens, UniProt P00533); test: Enzyme assay, IC50 for wt EGFR (Caliper); assay type: biochemical; conditions: enzyme phosphorylation assay; read-out: EGFR_WT IC50
T1 construct: isolated from A431 human epidermoid carcinoma cells which overexpress EGF receptor; endogenous in cells; host or cells: A431 human epidermoid carcinoma cells (receptor purified on wheat germ agglutinin sepharose)
T1 sequence (P00533 25-1210): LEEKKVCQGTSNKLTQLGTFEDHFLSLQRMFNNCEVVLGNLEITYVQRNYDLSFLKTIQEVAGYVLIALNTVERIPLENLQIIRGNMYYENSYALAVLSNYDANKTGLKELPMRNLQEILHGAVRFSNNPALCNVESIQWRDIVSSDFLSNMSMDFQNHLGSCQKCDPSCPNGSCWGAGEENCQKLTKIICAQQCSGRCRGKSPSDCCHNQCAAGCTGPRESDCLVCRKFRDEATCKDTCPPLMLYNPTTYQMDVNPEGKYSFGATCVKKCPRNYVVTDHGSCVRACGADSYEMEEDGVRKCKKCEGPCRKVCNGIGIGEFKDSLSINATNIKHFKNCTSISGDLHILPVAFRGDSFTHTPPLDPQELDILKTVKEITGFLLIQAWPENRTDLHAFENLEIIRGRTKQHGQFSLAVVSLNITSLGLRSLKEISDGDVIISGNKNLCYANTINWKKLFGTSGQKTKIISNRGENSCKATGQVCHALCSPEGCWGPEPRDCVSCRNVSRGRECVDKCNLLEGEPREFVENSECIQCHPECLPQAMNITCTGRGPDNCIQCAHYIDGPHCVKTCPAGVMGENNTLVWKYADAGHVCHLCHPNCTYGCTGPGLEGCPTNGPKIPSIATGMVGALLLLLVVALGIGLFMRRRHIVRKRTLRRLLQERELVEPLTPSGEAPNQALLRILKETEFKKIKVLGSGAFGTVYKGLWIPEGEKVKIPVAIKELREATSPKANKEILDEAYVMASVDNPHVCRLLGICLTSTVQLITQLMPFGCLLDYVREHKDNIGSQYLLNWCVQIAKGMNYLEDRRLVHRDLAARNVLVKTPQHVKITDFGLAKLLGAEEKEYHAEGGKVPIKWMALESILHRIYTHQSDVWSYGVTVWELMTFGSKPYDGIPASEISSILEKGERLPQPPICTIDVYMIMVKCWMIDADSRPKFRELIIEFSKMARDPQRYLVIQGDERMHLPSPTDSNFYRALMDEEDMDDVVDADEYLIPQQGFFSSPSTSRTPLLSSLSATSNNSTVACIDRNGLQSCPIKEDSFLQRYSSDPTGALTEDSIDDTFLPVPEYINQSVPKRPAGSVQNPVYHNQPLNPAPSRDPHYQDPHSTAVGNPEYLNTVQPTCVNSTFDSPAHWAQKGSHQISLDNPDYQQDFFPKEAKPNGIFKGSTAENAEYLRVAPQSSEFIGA

[1] = tested on: PC9 cells (EGFR d746-750 single mutant); test: PC-9 growth inhibition assay (cell proliferation), Method A; assay type: cell-based, human; conditions: cellular proliferation, PC9 cells, 72 h, CellTiter-Glo (Table 1); read-out: PC9 IC50 (nM) SM
[2] = tested on: p-EGFR in H1975 cells (L858R/T790M double mutant EGFR); conditions: read-out: H1975 IC50; cellular EGFR autophosphorylation, 2 h treatment, ELISA
Experimental: Cellular EGFR Autophosphorylation Assays.
H1975 cells were cryopreserved in liquid nitrogen. […] Remove the vial from liquid nitrogen and thaw rapidly by placing at 37° C. in a water bath with gentle agitation for 1-2 minutes and then decontaminated by wiping with 70% ethanol before opening in a Class II biological safety cabinet. Transfer the vial contents drop-wise into 10 mL of cell culture medium in a sterile 15 mL conical tube. Then centrifuged the tube at 200× g for 5 minutes and aspirate the supernatant. Re-suspend the cell pellet with 1 mL of fresh cell culture medium and transfer it in to the T75 flask containing cell culture medium.
To passage H1975 cells, firstly, the adherent cells were rinsed with Trypsin/EDTA. Then add Trypsin/EDTA (3 mL for a T75 flask) into the flask and swirl to ensure the cells coated with trypsin evenly. Then incubate the flasks at 37° C. until the cells detach. Add equal volume of cell culture medium to stop the reaction. Collect the detached cells and centrifuged at 200× g for 5 minutes followed by re-suspended in fresh culture medium. Then, the cells were transferred into a new T75 flask containing cell culture medium. Cells were sub-cultured three times per week at a ratio of 1:4 in culture medium.
Harvest cells from flask into cell culture medium and the cell numbers counted using Automated Cell Counter (Thermo Fisher Scientific, Countess™). Dilute the cells into 250,000 cells/mL with culture medium and add 40 μL of cell suspension into each well of 384-well cell culture plate as designated. The final concentration was 10,000 cells/well. The plates were covered with lid and placed in 37° C. 5% CO2 incubator overnight for cell attachment.
On the second day, test compounds were dissolved in DMSO at 10 mM. […] The same volume of DMSO was adopted as high control.
Place the plate back to 37° C. 5% CO2 incubator for 2 hours. Replace the medium of each well with ice-cold HBSS. Then remove the HBSS, add 30 μL cell lysis buffer into each well and shake the plates for 30 mins on a plate shaker. Centrifuge for 5 min at 1,000 rpm to remove bubbles and transfer 25 uL of the lysate supernatant for p-EGFR assay by using a commercial ELISA kit (R&D, DYC1095B-5).
For estimation of IC50, the absorption readout are transformed to % relative activity by applying the following equation
[formula] The IC50 was then calculated by fitting in XLFit (IDBS, Guildford, Surrey) to a four parameters logistic curve.

[3] = tested on: NCI-H1975 cells (EGFR L858R/T790 double mutant); test: H1975 inhibition assay (cell proliferation), Method A; assay type: cell-based; conditions: cellular proliferation, NCI-H1975 cells, 72 h, CellTiter-Glo (Table 1); read-out: NCI-H1975 IC50 (nM) DM
EGFR_T790M/L858R = EGFR_T790M/L858R (Homo sapiens, UniProt P00533, L858R/T790M); test: Enzyme assay, IC50 for double-mutant EGFR (EGFR_T790M/L858R) (Caliper); assay type: biochemical; conditions: enzyme phosphorylation assay; read-out: EGFR_L858R/T790 IC50
Chain of EGFR_T790M/L858R (P00533 25-1210 T790M/L858R): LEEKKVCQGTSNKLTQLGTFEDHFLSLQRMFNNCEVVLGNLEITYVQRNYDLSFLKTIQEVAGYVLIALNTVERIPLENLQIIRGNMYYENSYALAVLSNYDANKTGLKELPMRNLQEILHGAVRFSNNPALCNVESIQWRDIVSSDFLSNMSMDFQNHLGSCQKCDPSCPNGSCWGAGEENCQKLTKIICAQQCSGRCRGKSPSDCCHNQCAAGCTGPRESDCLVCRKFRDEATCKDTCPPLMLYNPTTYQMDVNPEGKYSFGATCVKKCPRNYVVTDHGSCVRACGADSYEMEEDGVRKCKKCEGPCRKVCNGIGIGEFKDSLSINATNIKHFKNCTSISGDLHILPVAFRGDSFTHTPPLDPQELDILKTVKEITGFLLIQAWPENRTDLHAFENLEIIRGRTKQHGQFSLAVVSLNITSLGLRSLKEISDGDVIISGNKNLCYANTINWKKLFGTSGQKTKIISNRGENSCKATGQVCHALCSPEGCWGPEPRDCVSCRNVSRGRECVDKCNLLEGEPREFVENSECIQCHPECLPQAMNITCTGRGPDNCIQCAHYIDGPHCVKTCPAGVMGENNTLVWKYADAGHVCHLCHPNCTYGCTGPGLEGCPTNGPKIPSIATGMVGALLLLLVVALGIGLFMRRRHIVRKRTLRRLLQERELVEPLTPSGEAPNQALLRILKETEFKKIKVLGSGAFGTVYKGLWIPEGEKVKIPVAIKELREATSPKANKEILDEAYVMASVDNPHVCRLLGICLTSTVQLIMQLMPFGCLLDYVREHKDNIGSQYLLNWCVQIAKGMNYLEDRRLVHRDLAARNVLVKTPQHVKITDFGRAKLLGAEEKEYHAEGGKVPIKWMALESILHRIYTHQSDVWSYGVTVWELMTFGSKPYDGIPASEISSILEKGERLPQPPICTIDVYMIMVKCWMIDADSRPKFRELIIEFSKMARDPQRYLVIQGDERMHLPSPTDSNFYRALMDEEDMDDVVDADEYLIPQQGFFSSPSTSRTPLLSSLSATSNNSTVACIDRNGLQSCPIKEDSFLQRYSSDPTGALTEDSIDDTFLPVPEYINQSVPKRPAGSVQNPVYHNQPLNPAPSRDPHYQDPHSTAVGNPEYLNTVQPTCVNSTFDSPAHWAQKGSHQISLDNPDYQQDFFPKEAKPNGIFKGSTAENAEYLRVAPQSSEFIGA

EGFR_d746-750 = EGFR_d746-750 (Homo sapiens, UniProt P00533, DEL746-750); test: Enzyme assay, IC50 for single mutant EGFR_d746-750 (Caliper); assay type: biochemical; conditions: enzyme phosphorylation assay
Chain of EGFR_d746-750 (P00533 with tags, fused parts or gaps DEL746-750): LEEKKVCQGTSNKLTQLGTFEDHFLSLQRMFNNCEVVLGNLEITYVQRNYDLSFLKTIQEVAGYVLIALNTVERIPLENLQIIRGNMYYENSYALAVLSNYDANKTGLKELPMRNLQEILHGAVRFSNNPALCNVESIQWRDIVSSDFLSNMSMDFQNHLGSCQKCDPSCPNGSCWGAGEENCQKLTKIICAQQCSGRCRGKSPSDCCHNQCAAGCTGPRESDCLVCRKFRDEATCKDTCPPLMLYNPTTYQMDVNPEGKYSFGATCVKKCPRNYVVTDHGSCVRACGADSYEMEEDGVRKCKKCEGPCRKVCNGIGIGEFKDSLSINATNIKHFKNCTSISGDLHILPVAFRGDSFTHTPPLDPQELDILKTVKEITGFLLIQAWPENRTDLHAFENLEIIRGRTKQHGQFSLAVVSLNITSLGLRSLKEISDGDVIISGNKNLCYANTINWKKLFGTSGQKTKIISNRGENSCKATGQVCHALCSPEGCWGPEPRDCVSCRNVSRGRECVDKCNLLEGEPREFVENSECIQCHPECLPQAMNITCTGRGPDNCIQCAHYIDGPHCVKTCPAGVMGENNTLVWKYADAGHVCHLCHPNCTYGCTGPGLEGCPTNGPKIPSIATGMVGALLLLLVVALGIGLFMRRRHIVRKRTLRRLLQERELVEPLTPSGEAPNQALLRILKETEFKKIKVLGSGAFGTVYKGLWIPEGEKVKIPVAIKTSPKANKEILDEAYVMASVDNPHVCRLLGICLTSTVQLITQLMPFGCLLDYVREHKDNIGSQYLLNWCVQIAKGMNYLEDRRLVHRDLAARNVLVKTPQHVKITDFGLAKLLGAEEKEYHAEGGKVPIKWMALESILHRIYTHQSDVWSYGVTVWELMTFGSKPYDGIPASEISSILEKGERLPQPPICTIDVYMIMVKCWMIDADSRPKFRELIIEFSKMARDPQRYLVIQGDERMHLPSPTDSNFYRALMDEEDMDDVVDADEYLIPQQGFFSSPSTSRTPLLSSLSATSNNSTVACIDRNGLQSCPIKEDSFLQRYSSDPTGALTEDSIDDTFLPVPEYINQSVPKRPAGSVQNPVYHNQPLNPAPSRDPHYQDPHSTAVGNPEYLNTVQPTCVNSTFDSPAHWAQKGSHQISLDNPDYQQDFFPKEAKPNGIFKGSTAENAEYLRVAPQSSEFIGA

[4] = tested on: LoVo cells (unmutated EGFR wild type); test: LoVo growth inhibition assay (cell proliferation), Method A; assay type: cell-based; conditions: cellular proliferation, 72 h, CellTiter-Glo (Table 1), read-out: LoVo IC50 (nM) WT
Experimental: Cell Proliferation Assays—Method A
LoVo Growth Inhibition Assay (Cell Proliferation)
The rest of the procedure was carried out in the same manner as described for the H1975 cells.

C=CC(=O)Nc1cc(Nc2nccc(-c3c[nH]c4ccccc34)n2)c(OC)cc1N(C)CCN(C)C [AZD-5104]
IC50 (Wt EGFR): 1.6 nM | IC50 [1]: 3.4 nM | IC50 [2]: 1.84 nM and 3.58 nM | IC50 [3]: 2.2 nM | IC50 (EGFR_T790M/L858R): 1.5 nM | IC50 (EGFR_d746-750): 1.1 nM | IC50 [4]: 3250 nM
